From US11529350B2, “Tyrosine kinase non-receptor 1 (TNK1) inhibitors and uses thereof” (Sumitomo Pharma Oncology, Inc., priority 2019, dated 2022)

Key:
L540 xenografts = assay: In vivo efficacy study in subcutaneous L540 Hodgkin's lymphoma CDX model; details: for tumor growth inhibition: oral gavage daily for 21 days
Experimental: An efficacy study was performed using Example No. 13 in a L540 CDX mouse model. Animals were NOD-SCID (#394) female mice 6-8 weeks of age from Charles River Laboratories (CRL). Example No. 13 was formulated weekly using Tween 80:Ethanol:PEG400:Water (2:10:30:58 v/v) as a vehicle. There were four treatment groups (n=10, 40 animals in total): a vehicle/control group, a group treated with 10 mg/kg Example No. 13, a group treated with 25 mg/kg Example No. 13 and a group treated with 50 mg/kg Example No. 13. When the average tumor volume reached 80-120 mm^3, animals were randomized and dosed daily for 21 days via oral gavage, 10 ml/kg dose volume. […] No tissues were collected. IDEXX pathogen test was performed prior to the cell culture; Corynebacterium bovis, Corynebacterium sp. (HAC2), EBV, HCMV, Hepatitis B, Hepatitis C, HIV1, HIV2, HPV16, HPV18, HTLV1, HTLV2, LDEV, and Mycoplasma sp. were tested, and all results were negative. Tumor volume measurements are provided as mean absolute tumor volume +/−SEM.

A549 cells = assay: Combination with bortezomib, A549 cell confluency (Incucyte); assay type: cell-based; details: Example No. 13 10 nM + Bortezomib 1 nM, over 200 hours
Experimental: A549 cells were seeded in log phase (e.g., at 40-60% confluency) in a well plate. Drug treatments were: no drug treatment, DMSO, bortezomib at 50 nM, 10 nM, 5 nM, 2 nM or 1 nM, Example No. 13 at 10 nM, and bortezomib 50 nM, 10 nM, 5 nM, 2 nM or 1 nM combined with Example No. 13 at 10 nM. The DMSO concentrations were kept constant (including DMSO control) to control for any confounding DMSO toxicity.
Drug addition protocol: On day 1, cells were seeded at 60,000 cells/well, and incubated for 24 hours to allow adherence. On day 2, media was aspirated and replaced with 500 μl of the drug media preparations described below in correlating wells. The plates were placed in Incucyte for 7-14 days, and cell confluency was measured every 2 hours. […]

COc1cc(N2CCN(C)CC2)c(Cl)cc1Nc1ncc(Cl)c(Nc2cccnc2N2CCCC2=O)n1 [Example No. 13, 1-(3-((5-chloro-2-((5-chloro-2-methoxy-4-(4-methylpiperazin-1-yl)phenyl)amino)pyrimidin-4-yl)amino)pyridin-2-yl)pyrrolidin-2-one]
tumor growth inhibition (L540 xenografts; 10 mg/kg, at Day 21): 35.17%
tumor growth inhibition (L540 xenografts; 25 mg/kg, at Day 31): 74.20%
body weight loss (L540 xenografts; 50 mg/kg): moderate
animals found dead on Day 7, possibly due to drug toxicity (L540 xenografts; 50 mg/kg group (n=10)): Two
tumor growth inhibition (L540 xenografts; 50 mg/kg, at Day 31): 86.5%
continued tumor growth inhibition post-dosing (L540 xenografts; 25 and 50 mg/kg, dosing stopped on day 21): up to 10 days
cell growth inhibition, combination (A549 cells): approximately 50%
